Results as given in patent publication US6423749B1, “Pharmaceutical composition for injection based on paracetamol” (Aziende Chimiche Riunite Angelini Francesco A.C.R.A.F. …, priority 1998, dated 2002).

Columns and labels:
[1] = Solubility of paracetamol, HPLC analysis of supernatant after centrifugation; assay type: physicochemical; conditions: stirred 2 hours at room temperature
Procedure: The PEG400 was added to the paracetamol at room temperature. This mixture was then kept stirring at room temperature for 2 hours.
4 ml of the above-mentioned suspension were centrifuged in an Eppendorf tube at 25° C. for 30 minutes at a speed of 7,000 rpm.
The absolute ethanol was added to the paracetamol at room temperature. This mixture was then kept stirring at room temperature for 2 hours.
4 ml of the above-mentioned suspension were centrifuged in an Eppendorf tube at 4° C. for 40 minutes at a speed of 7,000 rpm.

[2] = cited from earlier work

CC(=O)Nc1ccc(O)cc1 [paracetamol]
solubility of the paracetamol ([1]; in PEG-400, centrifuged at 25° C. for 30 minutes): 18-19% | solubility of the paracetamol ([1]; in absolute ethanol, centrifuged at 4° C. for 40 minutes): 9-10% | amount of paracetamol dissolved ([2]; 30% propylene glycol, 40% PEG400 and 30% water, 20° C., WO 98/05314): about 200 mg/ml | solubility in water ([2]; water, The Merck Index, 12th edition): very slightly soluble
